From patent publication US20240270762A1, “PENICILLIN-BINDING PROTEIN INHIBITORS” (priority 2021, published 2024)
Values after ≈ are worked out from the molar mass of the structure shown.

What was measured:
[1] = system: P. aeruginosa ATCC 35151; experiment: microbe, parasite or virus in culture; format: cell-based; conditions: Pseudomonas aeruginosa, ATCC35151, read-out: MIC P. aeruginosa ATCC 35151
[2] = system: E. coli D22; experiment: microbe, parasite or virus in culture; format: cell-based; conditions: Escherichia coli, D22, read-out: MIC E. coli D22
[3] = system: K. pneumoniae UMM; experiment: microbe, parasite or virus in culture; format: cell-based; conditions: Klebsiella pneumoniae, read-out: MIC K. pneumoniae UMM
[4] = system: E. coli ATCC 25922; experiment: microbe, parasite or virus in culture; format: cell-based; conditions: Escherichia coli, ATCC25922, read-out: MIC E. coli 25922
[5] = system: E. coli AG100A; experiment: Broth microdilution MIC in CAMHB; format: cell-based; conditions: Escherichia coli, read-out: MIC E. coli AG100A
[6] = system: N. gonorrhoeae CDC-0197; experiment: Liquid broth MIC in Fastidious broth; conditions: Neisseria gonorrhoeae, CDC0197, read-out: Minimum Inhibitory Concentration (MIC), N. gonorrhoeae CDC-0197
Experimental: ATCC 49226, FA1090, MS11, WHO G, WHO L, and WHO M produce wild type or wild-type like PBP2. WHO K, WHO X, WHO Z, WHO Q, and CDC-0197 produce mosaic PBP2. Liquid broth-based assays were used for antibacterial testing of PBP inhibitors in Neisseria gonorrhoeae. Briefly, cryo-preserved bacterial cultures of clinical strains were streaked for isolation on Chocolate Agar (72 g/L (2×) GC Agar Base (BD #228950) and 2% (2×) Hemoglobin was autoclaved at 121° C. for 20 minutes to sterilize. Once cooled to ˜50° C. the 2×GC Agar Base and 2× Hemoglobin solutions are combined and 1% IsoVitaleX Enrichment (BD #211876) was added to the solution). Strains were incubated at 36° C. and 5% CO2 to allow growth of colonies, 24 hours before inoculum preparation. 2-fold serial dilutions of test compounds were conducted in a 96 well plate with a final volume of 75 μL per well at 2-fold the final desired concentration in Fastidious broth (Remel #R07664). For preparation of assay inoculum, a direct suspension was prepared by aseptically swabbing 10-15 colonies from agar plates into culture tubes containing 2 mL of fresh sterile saline. After the dilution plates were set up, direct suspensions were then diluted in a cuvette containing sterile saline and the optical density was measured at 600 nm. Inocula were diluted such that 75 μL of this culture in Fastidious broth results in a starting bacterial concentration of 5×10^5 CFU/mL when added to the dilution plates. The plates were incubated for ˜24 hours at 36° C. and 5% CO2.

[7] = system: N. gonorrhoeae WHO K; experiment: Liquid broth MIC in Fastidious broth; conditions: Neisseria gonorrhoeae, read-out: Minimum Inhibitory Concentration (MIC), N. gonorrhoeae WHO K
[8] = system: N. gonorrhoeae ATCC 49226; experiment: Liquid broth MIC in Fastidious broth; conditions: Neisseria gonorrhoeae, ATCC49226, read-out: Minimum Inhibitory Concentration (MIC), N. gonorrhoeae ATCC 49226
[9] = system: N. gonorrhoeae WHO Q; experiment: Liquid broth MIC in Fastidious broth; conditions: Neisseria gonorrhoeae, read-out: Minimum Inhibitory Concentration (MIC), N. gonorrhoeae WHO Q
[10] = system: N. gonorrhoeae WHO M; experiment: Liquid broth MIC in Fastidious broth; conditions: Neisseria gonorrhoeae, read-out: Minimum Inhibitory Concentration (MIC), N. gonorrhoeae WHO M
[11] = system: K. pneumoniae SI-117; experiment: microbe, parasite or virus in culture; format: cell-based; conditions: Klebsiella pneumoniae, SI117, read-out: MIC K. pneumoniae SI-117
[12] = system: A. baumannii ATCC 19606; experiment: microbe, parasite or virus in culture; format: cell-based; conditions: Acinetobacter baumannii, ATCC19606, read-out: MIC, A. baumannii ATCC 19606
[13] = molecular target: T1, PBP3 from Escherichia coli (K-12) (Escherichia coli, UniProt P0AD68); experiment: Bocillin-FL fluorescence polarization competition binding, E. coli PBP3
T1 construct: made in house
Procedure, shortened: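 Purified PBP was preincubated with inhibitor (E. coli PBP3 1.5 μM, 30 min; P. aeruginosa PBP3 0.75 μM, A. baumannii PBP3 0.2 μM and PBP1a 1 μM, 15 min), then Bocillin-FL (0.1 μM; 0.05 μM for PBP1a) added and FP read up to 60 min. EC50 = 50% loss of bound probe.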

[14] = system: N. gonorrhoeae WHO Z; experiment: Liquid broth MIC in Fastidious broth; conditions: Neisseria gonorrhoeae, read-out: Minimum Inhibitory Concentration (MIC), N. gonorrhoeae WHO Z
Experimental: Additional antibacterial testing of the series was performed in 8 reference strains of N. gonorrhoeae (ATCC 49226, FA1090, MS 11, WHO G, WHO L, WHO M, WHO K, WHO X, WHO Z, WHO Q, CDC-0197). ATCC 49226, FA1090, MS11, WHO G, WHO L, and WHO M produce wild type or wild-type like PBP2. WHO K, WHO X, WHO Z, WHO Q, and CDC-0197 produce mosaic PBP2. Liquid broth-based assays were used for antibacterial testing of PBP inhibitors in Neisseria gonorrhoeae. Briefly, cryo-preserved bacterial cultures of clinical strains were streaked for isolation on Chocolate Agar (72 g/L (2×) GC Agar Base (BD #228950) and 2% (2×) Hemoglobin was autoclaved at 121° C. for 20 minutes to sterilize. Once cooled to ˜50° C. the 2×GC Agar Base and 2× Hemoglobin solutions are combined and 1% IsoVitaleX Enrichment (BD #211876) was added to the solution). Strains were incubated at 36° C. and 5% CO2 to allow growth of colonies, 24 hours before inoculum preparation. 2-fold serial dilutions of test compounds were conducted in a 96 well plate with a final volume of 75 μL per well at 2-fold the final desired concentration in Fastidious broth (Remel #R07664). For preparation of assay inoculum, a direct suspension was prepared by aseptically swabbing 10-15 colonies from agar plates into culture tubes containing 2 mL of fresh sterile saline. After the dilution plates were set up, direct suspensions were then diluted in a cuvette containing sterile saline and the optical density was measured at 600 nm. Inocula were diluted such that 75 μL of this culture in Fastidious broth results in a starting bacterial concentration of 5×10^5 CFU/mL when added to the dilution plates. The plates were incubated for ˜24 hours at 36° C. and 5% CO2.

[15] = system: N. gonorrhoeae WHO L; experiment: Liquid broth MIC in Fastidious broth; conditions: Neisseria gonorrhoeae, read-out: Minimum Inhibitory Concentration (MIC), N. gonorrhoeae WHO L
[16] = system: N. gonorrhoeae MS11; experiment: Liquid broth MIC in Fastidious broth; conditions: Neisseria gonorrhoeae, MS11, read-out: Minimum Inhibitory Concentration (MIC), N. gonorrhoeae MS11

T1 sequence (P0AD68 1-577): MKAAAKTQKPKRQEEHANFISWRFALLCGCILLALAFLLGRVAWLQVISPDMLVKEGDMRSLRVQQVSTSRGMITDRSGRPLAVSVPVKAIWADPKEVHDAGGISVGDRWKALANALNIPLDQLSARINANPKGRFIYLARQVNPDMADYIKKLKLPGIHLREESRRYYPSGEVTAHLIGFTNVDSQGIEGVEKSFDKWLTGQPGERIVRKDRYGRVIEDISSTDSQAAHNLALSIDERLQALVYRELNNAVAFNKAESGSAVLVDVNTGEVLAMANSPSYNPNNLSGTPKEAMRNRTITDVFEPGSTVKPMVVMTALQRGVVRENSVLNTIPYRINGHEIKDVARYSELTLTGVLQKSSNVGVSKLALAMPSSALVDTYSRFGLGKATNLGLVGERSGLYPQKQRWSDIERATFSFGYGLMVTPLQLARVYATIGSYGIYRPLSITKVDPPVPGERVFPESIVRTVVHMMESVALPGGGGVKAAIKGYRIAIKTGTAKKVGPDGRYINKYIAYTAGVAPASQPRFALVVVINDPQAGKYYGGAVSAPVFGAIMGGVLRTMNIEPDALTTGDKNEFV

| Structure (SMILES) | MIC [1] [µg/mL] | MIC [2] [µg/mL] | MIC [3] [µg/mL] | MIC [4] [µg/mL] | MIC [5] [µg/mL] | MIC [6] [µg/mL] | MIC [7] [µg/mL] | MIC [8] [µg/mL] | MIC [9] [µg/mL] | MIC [10] [µg/mL] | MIC [11] [µg/mL] | MIC [12] [µg/mL] | EC50 [13] [µM] | MIC [14] [µg/mL] | MIC [15] [µg/mL] | MIC [16] [µg/mL] |
| --- | --- | --- | --- | --- | --- | --- | --- | --- | --- | --- | --- | --- | --- | --- | --- | --- |
| O=C(O)c1c(F)ccc2c1OB(O)[C@@H](NC(=O)C(NC(=O)N1CCN(Cc3ccc(O)c(O)c3Cl)C(=O)C1=O)c1ccc(P(=O)(O)O)cc1)C2 (stereo partly drawn) [Example 8, (3R)-3-(2-(4-(2-chloro-3,4-dihydroxybenzyl)-2,3-dioxopiperazine-1-carboxamido)-2-(4-phosphonophenyl)acetamido)-7-fluoro-2-hydroxy-3,4-dihydro-2H-benzo[e][1,2]oxaborinine-8-carboxylic acid] | < 1 | < 1 | 2 to 4 (≈ 2.72 to 5.44 µM) | 2 to 4 (≈ 2.72 to 5.44 µM) | < 1 | 1 to 2 (≈ 1.36 to 2.72 µM) | 1 to 2 (≈ 1.36 to 2.72 µM) | < 1 | < 1 | < 1 | 8 to 16 (≈ 10.9 to 21.8 µM) | < 1 | < 10 | < 1 | 4 to 8 (≈ 5.44 to 10.9 µM) | < 1 |
| CS(=O)(=O)N1CCN(C(=O)NC(C(=O)N[C@H]2Cc3cccc(C(=O)O)c3OB2O)c2ccc(P(=O)(O)O)c(F)c2)C1=O (stereo partly drawn) [Example 12, (3R)-3-(2-(3-fluoro-4-phosphonophenyl)-2-(3-(methylsulfonyl)-2-oxoimidazolidine-1-carboxamido)acetamido)-2-hydroxy-3,4-dihydro-2H-benzo[e][1,2]oxaborinine-8-carboxylic acid] | 8 to 16 (≈ 12.7 to 25.5 µM) | 2 to 4 (≈ 3.18 to 6.37 µM) | > 128 | 32 to 64 (≈ 50.9 to 102 µM) | 8 to 16 (≈ 12.7 to 25.5 µM) | < 1 | < 1 | < 1 | < 1 | < 1 | > 128 | 32 to 64 (≈ 50.9 to 102 µM) | < 10 | < 1 | < 1 | < 1 |
| O=C(O)c1cccc2c1OB(O)[C@@H](NC(=O)C(NC(=O)[C@H]1CCCN1)c1ccc(P(=O)(O)O)cc1)C2 (stereo partly drawn) [Example 52, (3R)-2-hydroxy-3-(2-(4-phosphonophenyl)-2-((R)-pyrrolidine-2-carboxamido)acetamido)-3,4-dihydro-2H-benzo[e][1,2]oxaborinine-8-carboxylic acid] | 8 to 16 (≈ 15.5 to 30.9 µM) | 32 to 64 (≈ 61.9 to 124 µM) | 32 to 64 (≈ 61.9 to 124 µM) | > 128 | 32 to 64 (≈ 61.9 to 124 µM) | 16 to 32 (≈ 30.9 to 61.9 µM) | 16 to 32 (≈ 30.9 to 61.9 µM) | 16 to 32 (≈ 30.9 to 61.9 µM) | 16 to 32 (≈ 30.9 to 61.9 µM) | 16 to 32 (≈ 30.9 to 61.9 µM) | 32 to 64 (≈ 61.9 to 124 µM) | > 128 | > 250 | 16 to 32 (≈ 30.9 to 61.9 µM) | 4 to 8 (≈ 7.73 to 15.5 µM) | 16 to 32 (≈ 30.9 to 61.9 µM) |
| CCN1CCN(C(=O)NC(C(=O)N[C@H]2Cc3cccc(C(=O)O)c3OB2O)c2c(F)cc(P(=O)(O)O)cc2F)C(=O)C1=O (stereo partly drawn) [Example 25, (3R)-3-(2-(2,6-difluoro-4-phosphonophenyl)-2-(4-ethyl-2,3-dioxopiperazine-1-carboxamido)acetamido)-2-hydroxy-3,4-dihydro-2H-benzo[e][1,2]oxaborinine-8-carboxylic acid] | 2 to 4 (≈ 3.2 to 6.41 µM) | 2 to 4 (≈ 3.2 to 6.41 µM) | 32 to 64 (≈ 51.3 to 103 µM) | > 128 | 32 to 64 (≈ 51.3 to 103 µM) | < 1 | 1 to 2 (≈ 1.6 to 3.2 µM) | < 1 | 1 to 2 (≈ 1.6 to 3.2 µM) | < 1 | > 128 | > 128 | < 10 | < 1 | 1 to 2 (≈ 1.6 to 3.2 µM) | < 1 |
| CS(=O)(=O)N1CCN(C(=O)N[C@@H](C(=O)N[C@H]2Cc3cccc(C(=O)O)c3OB2O)c2ccc(P(=O)(O)O)c(F)c2)C1=O (single isomer, unassigned) [Example 15] | 2 to 4 (≈ 3.18 to 6.37 µM) | 2 to 4 (≈ 3.18 to 6.37 µM) | > 128 | 32 to 64 (≈ 50.9 to 102 µM) | 8 to 16 (≈ 12.7 to 25.5 µM) | < 1 | < 1 | < 1 | < 1 | < 1 | > 128 | 32 to 64 (≈ 50.9 to 102 µM) | < 10 | < 1 | < 1 | < 1 |
